How the values were obtained:
Type in all cases: functional
Conditions in all cases: at 10 µM
CCRF-CEM = experiment: Growth inhibition of human CCRF-CEM cells after 48 hrs by cell counting analysis
HL-60 = experiment: Growth inhibition of human HL60 cells after 48 hrs by cell counting analysis
K562 = experiment: Growth inhibition of human K562 cells after 48 hrs by cell counting analysis
RPMI-8226 = experiment: Growth inhibition of human RPMI8226 cells after 48 hrs by cell counting analysis
SR = experiment: Growth inhibition of human SR cells after 48 hrs by cell counting analysis
A549 = experiment: Growth inhibition of human A549 cells after 48 hrs by cell counting analysis
EKVX = experiment: Growth inhibition of human EKVX cells after 48 hrs by cell counting analysis
HOP-62 = experiment: Growth inhibition of human HOP62 cells after 48 hrs by cell counting analysis
HOP-92 = experiment: Growth inhibition of human HOP92 cells after 48 hrs by cell counting analysis
NCI-H226 = experiment: Growth inhibition of human NCI-H226 cells after 48 hrs by cell counting analysis
NCI-H23 = experiment: Growth inhibition of human NCI-H23 cells after 48 hrs by cell counting analysis
[1] = Growth inhibition of human NCI-322M cells after 48 hrs by cell counting analysis
NCI-H522 = experiment: Growth inhibition of human NCI-H522 cells after 48 hrs by cell counting analysis
HCC 2998 = experiment: Growth inhibition of human HCC2998 cells after 48 hrs by cell counting analysis
HCT-15 = experiment: Growth inhibition of human HCT15 cells after 48 hrs by cell counting analysis
HT-29 = experiment: Growth inhibition of human HT-29 cells after 48 hrs by cell counting analysis
KM12 = experiment: Growth inhibition of human KM12 cells after 48 hrs by cell counting analysis
SW-620 = experiment: Growth inhibition of human SW620 cells after 48 hrs by cell counting analysis
SF-268 = experiment: Growth inhibition of human SF268 cells after 48 hrs by cell counting analysis
SF-295 = experiment: Growth inhibition of human SF295 cells after 48 hrs by cell counting analysis
SF-539 = experiment: Growth inhibition of human SF539 cells after 48 hrs by cell counting analysis
SNB-19 = experiment: Growth inhibition of human SNB19 cells after 48 hrs by cell counting analysis
SNB-75 = experiment: Growth inhibition of human SNB75 cells after 48 hrs by cell counting analysis
U-251 = experiment: Growth inhibition of human U251 cells after 48 hrs by cell counting analysis
LOX IMVI = experiment: Growth inhibition of human LOXIMVI cells after 48 hrs by cell counting analysis
Malme-3M = experiment: Growth inhibition of human MALME-3M cells after 48 hrs by cell counting analysis
M14 = experiment: Growth inhibition of human M14 cells after 48 hrs by cell counting analysis
MDA-MB-435 = experiment: Growth inhibition of human MDA-MB-435 cells after 48 hrs by cell counting analysis
SK-MEL-2 = experiment: Growth inhibition of human SK-MEL-2 cells after 48 hrs by cell counting analysis
SK-MEL-28 = experiment: Growth inhibition of human SK-MEL-28 cells after 48 hrs by cell counting analysis
SK-MEL-5 = experiment: Growth inhibition of human SK-MEL-5 cells after 48 hrs by cell counting analysis
UACC-257 = experiment: Growth inhibition of human UACC257 cells after 48 hrs by cell counting analysis
UACC-62 = experiment: Growth inhibition of human UACC62 cells after 48 hrs by cell counting analysis
IGROV-1 = experiment: Growth inhibition of human IGROV1 cells after 48 hrs by cell counting analysis
OVCAR-3 = experiment: Growth inhibition of human OVCAR3 cells after 48 hrs by cell counting analysis
OVCAR-4 = experiment: Growth inhibition of human OVCAR4 cells after 48 hrs by cell counting analysis
OVCAR-5 = experiment: Growth inhibition of human OVCAR5 cells after 48 hrs by cell counting analysis
OVCAR-8 = experiment: Growth inhibition of human OVCAR8 cells after 48 hrs by cell counting analysis
[2] = Growth inhibition of human NCI-ADR-RES cells after 48 hrs by cell counting analysis
SK-OV-3 = experiment: Growth inhibition of human SKOV3 cells after 48 hrs by cell counting analysis
ACHN = experiment: Growth inhibition of human ACHN cells after 48 hrs by cell counting analysis
CAKI-1 = experiment: Growth inhibition of human Caki1 cells after 48 hrs by cell counting analysis
RXF 393 = experiment: Growth inhibition of human RXF393 cells after 48 hrs by cell counting analysis
SN12C = experiment: Growth inhibition of human SN12C cells after 48 hrs by cell counting analysis
TK-10 = experiment: Growth inhibition of human TK10 cells after 48 hrs by cell counting analysis
UO-31 = experiment: Growth inhibition of human UO31 cells after 48 hrs by cell counting analysis
PC-3 = experiment: Growth inhibition of human PC3 cells after 48 hrs by cell counting analysis
MCF7 = experiment: Growth inhibition of human MCF7 cells after 48 hrs by cell counting analysis
MDA-MB-231 = experiment: Growth inhibition of human MDA-MB-231 cells after 48 hrs by cell counting analysis
BT-549 = experiment: Growth inhibition of human BT549 cells after 48 hrs by cell counting analysis
T47D = experiment: Growth inhibition of human T47D cells after 48 hrs by cell counting analysis
MDA-MB-468 = experiment: Growth inhibition of human MDA-MB-468 cells after 48 hrs by cell counting analysis
MOLT-4 = experiment: Growth inhibition of human MOLT4 cells after 48 hrs by cell counting analysis
HCT-116 = experiment: Growth inhibition of human HCT116 cells after 48 hrs by cell counting analysis

With `Cn1cc(NC(=O)c2cc(NC(=O)CNC(=N)N)cn2C)cc1C(=O)NCCC(=N)N` [NETROPSIN] the “growth inhibition (GI)” value (CCRF-CEM) was 15.3%, the “growth inhibition (GI)” value (HL-60) was 12.6% and the “growth inhibition (GI)” value (K562) was 25.1%. For the same compound, the “growth inhibition (GI)” value (RPMI-8226) was 28.9%, the “growth inhibition (GI)” value (SR) was less than 10% and the “growth inhibition (GI)” value (A549) was 10.3%. For the same compound, the “growth inhibition (GI)” value (EKVX) was 19.5%, the “growth inhibition (GI)” value (HOP-62) was 10.9% and the “growth inhibition (GI)” value (HOP-92) was less than 10%. For the same compound, the “growth inhibition (GI)” value (NCI-H226) was 14.5%, the “growth inhibition (GI)” value (NCI-H23) was 13.9% and the “growth inhibition (GI)” value [1] was 11.1%. The “growth inhibition (GI)” value (NCI-H522) was 28.2%, the “growth inhibition (GI)” value (HCC 2998) was less than 10% and the “growth inhibition (GI)” value (HCT-15) was less than 10%. For the same compound, the “growth inhibition (GI)” value (HT-29) was 10.8%, the “growth inhibition (GI)” value (KM12) was less than 10% and the “growth inhibition (GI)” value (SW-620) was less than 10%. For the same compound, the “growth inhibition (GI)” value (SF-268) was less than 10%, the “growth inhibition (GI)” value (SF-295) was 14.4% and the “growth inhibition (GI)” value (SF-539) was less than 10%. The “growth inhibition (GI)” value (SNB-19) was 10.5%, the “growth inhibition (GI)” value (SNB-75) was 29.8% and the “growth inhibition (GI)” value (U-251) was less than 10%. For the same compound, the “growth inhibition (GI)” value (LOX IMVI) was less than 10%, the “growth inhibition (GI)” value (Malme-3M) was 12.4% and the “growth inhibition (GI)” value (M14) was less than 10%. For the same compound, the “growth inhibition (GI)” value (MDA-MB-435) was less than 10%, the “growth inhibition (GI)” value (SK-MEL-2) was less than 10% and the “growth inhibition (GI)” value (SK-MEL-28) was less than 10%. For the same compound, the “growth inhibition (GI)” value (SK-MEL-5) was 23.7%, the “growth inhibition (GI)” value (UACC-257) was less than 10% and the “growth inhibition (GI)” value (UACC-62) was 29%. For the same compound, the “growth inhibition (GI)” value (IGROV-1) was 17.4%, the “growth inhibition (GI)” value (OVCAR-3) was less than 10% and the “growth inhibition (GI)” value (OVCAR-4) was less than 10%. The “growth inhibition (GI)” value (OVCAR-5) was less than 10%, the “growth inhibition (GI)” value (OVCAR-8) was less than 10% and the “growth inhibition (GI)” value [2] was 17%. The “growth inhibition (GI)” value (SK-OV-3) was less than 10%, the “growth inhibition (GI)” value (ACHN) was less than 10% and the “growth inhibition (GI)” value (CAKI-1) was 28.9%. The “growth inhibition (GI)” value (RXF 393) was less than 10%, the “growth inhibition (GI)” value (SN12C) was less than 10% and the “growth inhibition (GI)” value (TK-10) was less than 10%. The “growth inhibition (GI)” value (UO-31) was 30.6%, the “growth inhibition (GI)” value (PC-3) was 17.8% and the “growth inhibition (GI)” value (MCF7) was 13.7%. For the same compound, the “growth inhibition (GI)” value (MDA-MB-231) was 23.4%, the “growth inhibition (GI)” value (BT-549) was 12.9% and the “growth inhibition (GI)” value (T47D) was 25.2%. The “growth inhibition (GI)” value (MDA-MB-468) was 25.7%, the “growth inhibition (GI)” value (MOLT-4) was 33.2% and the “growth inhibition (GI)” value (HCT-116) was 10.7%.
